In patent US6528464B1, “Composition and method for inhibiting uptake of biguanide antimicrobials by hydrogels” (Bausch & Lomb Incorporated, priority 2001, dated 2003):

Assay: Uptake (sorption) of Alexidine by SureVue hydrogel contact lenses after overnight soak
Type: physicochemical
Text: The following examples evaluate whether the addition of cyclodextrin reduced the sorption of the biguanide Alexidine on SureVue® brand hydrogel contact lenses (commercially available from Johnson & Johnson Vision Care Incorporated of Jacksonville, Fla.).
5. 3-mL of each test solution, as well as the control solution, were placed into the lens cases for a total of 5 samples per solution.
6. SureVue® lenses were placed into each lens well aseptically.
7. Each lens was “dipped” into double-distilled water for approximately 2 seconds prior to installation into the lens cases.
8. Lenses were allowed to soak for approximately 18 hours (overnight).
9. 1-mL of solution from each of the lens wells was removed, analyzed and returned to the lens cases.

| Uptake of Alexidine by SureVue ® Lenses (0.1% Beta-Cyclodextrin) (0.1% Beta-Cyclodextrin, soak approximately 18 hours) | Uptake of Alexidine by SureVue ® Lenses (0.3% Beta-Cyclodextrin) (0.3% Beta-Cyclodextrin, soak approximately 18 hours) | Uptake of Alexidine By SureVue ® Lenses (no Beta-Cyclodextrin (control solution), soak approximately 18 hours) | SMILES | Inhibition of uptake of Alexidine by SureVue ® Lenses (0.1% Beta-Cyclodextrin) | Inhibition of uptake of Alexidine by SureVue ® Lenses (0.3% Beta-Cyclodextrin) |
| --- | --- | --- | --- | --- | --- |
| – | – | – | OC[C@H]1O[C@@H]2O[C@H]3[C@H](O)[C@@H](O)[C@@H](O[C@H]4[C@H](O)[C@@H](O)[C@@H](O[C@H]5[C@H](O)[C@@H](O)[C@@H](O[C@H]6[C@H](O)[C@@H](O)[C@@H](O[C@H]7[C@H](O)[C@@H](O)[C@@H](O[C@H]8[C@H](O)[C@@H](O)[C@@H](O[C@H]1[C@H](O)[C@H]2O)O[C@@H]8CO)O[C@@H]7CO)O[C@@H]6CO)O[C@@H]5CO)O[C@@H]4CO)O[C@@H]3CO [Beta-Cyclodextrin] | 17.50% Inhibition | 58.75% Inbibition |
| 62.10 ppm | 31.04 ppm | 75.26 ppm | CCCCC(CC)CNC(=N)NC(=N)NCCCCCCNC(=N)NC(=N)NCC(CC)CCCC (centres unmarked) [Alexidine] | – | – |
